Reference: US10130616B2, “Securinine and norsecurinine analogue compounds for the treatment of myeloid disorders” (Case Western Reserve University, priority 2013, dated 2018)
Where two headings read alike, the source gives them in different places.

What was measured:
HL-60 cells = experiment: Growth of HL-60 cells (IC50); type: cell-based, human; details: value bracketed between tested concentrations
HL-60 leukemic cells = experiment: Nitroblue Tetrazolium (NBT) reduction assay, differentiation of HL-60 leukemic cells; type: cell-based, human
Description: In an aspect of the present disclosure, the compounds of the disclosure can be identified using a novel high-throughput screen that is biased to identify agents that have both a high potency and low toxicity in a myeloid disorder disease model, such as an animal or cell model. In some embodiments, the high-throughput screen measures the differentiation of HL-60 leukemic cells using a quantitative nitroblue tetrazolium (NBT) reduction assay. Screening HL-60 cells, human promyelocytic cells, is advantageous as they have been used extensively as a cell line to study myeloid differentiation. Though promyelocytic cells, HL-60 cells were derived from a patient with acute myeloblastic leukemia with maturation, FAB-M2.
This technique has also been widely exploited in HL-60 cells to analyze myelomonocytic differentiation.
The NBT screen works due to changes in the oxidoreductases during differentiation that lead to increases in rates of NBT reduction. NBT is reduced due to the production of superoxide that is catalyzed by an NADPH oxidase. […] NBT is reduced by superoxide from a soluble yellow compound to insoluble blue formazan granules whose formation can be monitored spectrophotometrically at 560 nm as the unreduced dye has minimal absorbance at this wavelength. A quantitative NBT reduction assay is ideal for this type of screen as it is simple, sensitive, quantitative, requires minimal cells, has been proven to have low well to well variability, and the amount of reduced NBT is proportional to the number of cells reducing the dye as well as the amount reduced by each cell.
To discover novel AML differentiation-inducing compounds a rapid high-throughput screen (HTS) was developed and optimized. The screen was designed to be biased to identify compounds that, unlike the majority of known differentiation-inducing agents, have both high potency and low toxicity. The screen measured the differentiation of HL-60 leukemic cells using a quantitative Nitroblue Tetrazolium (NBT) reduction assay, a test that is used extensively as a measure of functional myelomonocytic differentiation. The basis for the screen is unreduced NBT exists as a yellow soluble dye. Differentiated leukemic cells are capable of producing a respiratory burst that can reduce NBT into a blue insoluble compound that can be measured spectrophotometrically. This forward chemical genetics approach allowed the discovery of novel compounds that can act on targets not previously known to be “drugable.” As only live cells can reduce NBT, the screen is biased in identifying relatively nontoxic compounds.
To perform the screen, duplicate plates of HL-60 cells were cultured at a density of 5×10^4 cells/mL with 10 μM of each compound in 96 well plates for 5 days. To determine the relative capability for a compound to induce differentiation compared to known potent inducers, each plate destined for the NBT reduction assay included wells with 0.1% DMSO (vehicle control) and 1 μM ATRA. This approach eliminates any slight day to day variation in NBT reduction values and allows the discovery of compounds with similar or greater efficacy to ATRA. Differentiation was determined in the 96 well plates by incubating the cells with 1 mg/mL of NBT and 200 ng/mL of PMA as the stimulant for the respiratory burst for 35 minutes at 37° C. The reaction was then stopped with HCl and the formazan solubilized with DMSO. Finally, the reaction mixture was read spectrophotometrically at 560 nm in a plate reader.
The securinine and norsecurinine analogues were tested and evaluated on their abilities to affect differentiation and growth of HL-60 cells (Table 1).

[1] = Homo sapiens, HL-60, HL-60 cells, read-out: HL-60, IC50
[2] = Homo sapiens, HL-60, read-out: HL-60, Dif50
[3] = HL-60 cells, value bracketed between tested concentrations, read-out: HL-60, Dif50
[4] = Homo sapiens, HL-60 cells, value bracketed between tested concentrations, read-out: HL-60, Dif50

For CC(C)(C)OCC#CC1=C[C@@H]2C[C@@]3(OC(=O)C=C13)[C@H]1CCCCN21 [Compound 45], the IC50 (HL-60 cells; [1]) was 1250 to 2500 nM.

Molecule O=C1C=C2CC(SCC3CCCCCC3)[C@@H]3C[C@@]2(O1)[C@H]1CCCCN31 (stereo partly drawn) [Compound 70] has an EC50 (HL-60 leukemic cells; [2]) of 10 to 15 µM.

O=C1C=C2C(c3cc(Br)cc(Br)c3)=C[C@@H]3C[C@@]2(O1)[C@H]1CCCCN31 [Compound 7] gave an IC50 (HL-60 cells; [1]) of 15000 to 20000 nM.

Work on O=C1C=C2C[C@H](SCC(F)(F)F)[C@@H]3C[C@@]2(O1)[C@H]1CCCCN31 [INVS-MG-5B] yielded an EC50 (HL-60 leukemic cells; [3]) greater than 30 µM.

Work on C[N+]12CCCC[C@@H]1[C@]13C[C@H]2C=CC1=CC(=O)O3 (stereo partly drawn) [Sec-1] yielded an EC50 (HL-60 leukemic cells; [3]) greater than 30 µM.

For COC(OC)[C@H]1CC[C@H]2N1[C@@H]1C=CC3=CC(=O)O[C@@]32C1 [Compound 2], the EC50 (HL-60 leukemic cells; [2]) was 3.25 to 5 µM.

Work on CCCCC1=C[C@@H]2C[C@@]3(OC(=O)C=C13)[C@H]1CCCCN21 [Compound 4] yielded an IC50 (HL-60 cells; [1]) of 3000 to 4000 nM.

O=C1C=C2CC(NC3CCCCCC3)[C@@H]3C[C@@]2(O1)[C@H]1CCCCN31 (stereo partly drawn) [Compound 83] showed an EC50 (HL-60 leukemic cells; [4]) greater than 30 µM.

O=C1C=C2CC(SCC(F)(F)F)[C@@H]3C[C@@]2(O1)[C@H]1CCCCN31 (stereo partly drawn) [Compound 67] was tested, and the EC50 (HL-60 leukemic cells; [4]) was 20 to 30 µM.

CCOC(C#CC1=C[C@@H]2C[C@@]3(OC(=O)C=C13)[C@H]1CCCCN21)OCC [Compound 44] gave an IC50 (HL-60 cells; [1]) of 2500 to 5000 nM.

O=C1C=C2C(I)=C[C@@H]3C[C@@]2(O1)[C@H]1CCCCN31 [Compound 13] gave an IC50 (HL-60 cells; read-out: HL-60, IC50, HL-60 cells) of less than 2500 nM.

O=C1C=C2CC(n3cnc4ccccc43)[C@@H]3C[C@@]2(O1)[C@H]1CCCCN31 (stereo partly drawn) [Compound 91] was tested, and the EC50 (HL-60 leukemic cells; [4]) was greater than 30 µM.

O=C1C=C2C(I)=C[C@@H]3C[C@@]2(O1)[C@H]1CCCCN31 [Compound 14] showed an EC50 (HL-60 leukemic cells; [2]) of 0.5 to 0.75 µM.

O=C1C=C2CC(NC3CC3)[C@@H]3C[C@@]2(O1)[C@H]1CCCCN31 (stereo partly drawn) [Compound 80] gave an EC50 (HL-60 leukemic cells; [4]) of 20 to 30 µM.

With O=C1C=C2CC(SCc3ccccc3O)[C@@H]3C[C@@]2(O1)[C@H]1CCCCN31 (stereo partly drawn) [Compound 94] the EC50 (HL-60 leukemic cells; [2]) was 15 to 20 µM.

In the case of CCCCSC1CC2=CC(=O)O[C@@]23C[C@@H]1N1CCCC[C@@H]13 (stereo partly drawn) [Compound 72], the EC50 (HL-60 leukemic cells; [4]) is reported as 20 to 30 µM.

O=C(CCCC[C@@H]1SC[C@@H]2NC(=O)N[C@@H]21)NCCS[C@H]1CC2=CC(=O)O[C@@]23C[C@@H]1N1CCCC[C@@H]13 [Compound 78] was tested, and the EC50 (HL-60 leukemic cells; [4]) was 10 to 15 µM.

With O=C1C=C2C(c3cc(C(F)(F)F)cc(C(F)(F)F)c3)=C[C@@H]3C[C@@]2(O1)[C@H]1CCCCN31 [Compound 6] the IC50 (HL-60 cells; [1]) was 15000 to 20000 nM.

With O=C1C=C2CC(SCc3ccccc3)[C@@H]3C[C@@]2(O1)[C@H]1CCCCN31 (stereo partly drawn) [Compound 93] the EC50 (HL-60 leukemic cells; [2]) was greater than 30 µM.

In the case of CC(C)(C)C#CC1=C[C@@H]2C[C@@]3(OC(=O)C=C13)[C@H]1CCCCN21 [Compound 23], the IC50 (HL-60 cells; [1]) is reported as 1250 to 2500 nM.

O=C1C=C2CC(NCC3CC3)[C@@H]3C[C@@]2(O1)[C@H]1CCCCN31 (stereo partly drawn) [Compound 79] was tested, and the EC50 (HL-60 leukemic cells; [4]) was 10 to 15 µM.

With O=C1C=C2CC(SCc3cccs3)[C@@H]3C[C@@]2(O1)[C@H]1CCCCN31 (stereo partly drawn) [Compound 69] the EC50 (HL-60 leukemic cells; [4]) was 20 to 30 µM.

With O=C1C=C2C(C#Cc3ccc(F)cc3)=C[C@@H]3C[C@@]2(O1)[C@H]1CCCCN31 [Compound 30] the IC50 (HL-60 cells; [1]) was 310 to 625 nM.

For CCc1ccc(C#CC2=C[C@@H]3C[C@@]4(OC(=O)C=C24)[C@H]2CCCCN32)cc1 [Compound 49], the IC50 (HL-60 cells; [1]) was 310 to 625 nM.

O=C1C=C2C(C#CCOCc3ccccc3)=C[C@@H]3C[C@@]2(O1)[C@H]1CCCCN31 [Compound 34] was tested, and the IC50 (HL-60 cells; [1]) was 1250 to 2500 nM.

O=C1C=C2C(C#Cc3cccs3)=C[C@@H]3C[C@@]2(O1)[C@H]1CCCCN31 [Compound 52] showed an IC50 (HL-60 cells; [1]) of 70 to 156 nM.

For CC(C)[Si](OCC#CC1=C[C@@H]2C[C@@]3(OC(=O)C=C13)[C@H]1CCCCN21)(C(C)C)C(C)C [Compound 27], the IC50 (HL-60 cells; Homo sapiens, HL-60, read-out: HL-60, IC50, HL-60 cells) was 625 to 1250 nM.

CCCCc1ccc(C#CC2=C[C@@H]3C[C@@]4(OC(=O)C=C24)[C@H]2CCCCN32)cc1 [Compound 50] showed an IC50 (HL-60 cells; [1]) of 625 to 1250 nM.

O=C1C=C2C(C#CC3CCCC3)=C[C@@H]3C[C@@]2(O1)[C@H]1CCCCN31 [Compound 19] showed an IC50 (HL-60 cells; [1]) of 310 to 625 nM.

Work on [N-]=[N+]=Nc1ccc(C#CC2=C[C@@H]3C[C@@]4(OC(=O)C=C24)[C@H]2CCCCN32)cc1 [Compound 54] yielded an IC50 (HL-60 cells; [1]) of 310 nM.
